From PubChem BioAssay AID2305 (GlaxoSmithKline (GSK), 2010) come the findings set out here.

In the assay the test system is P. falciparum 3D7 growth, pLDH absorbance. The assay can be described thus: P. falciparum 3D7 growth inhibition, dose response, strain 3D7 (AID 2305).

What is called IC50 is the midpoint of a concentration-inhibition curve. A lower IC50 goes with higher potency.

`CCOc1ccc(C=CC(=O)Nc2ccc3nc(N4CCOCC4)cc(C)c3c2)cc1OC` displayed an IC50 of 900 nM.

Take `COc1ccc(C2C(C(=O)Nc3cc(OC)c(OC)c(OC)c3)c3cc(OC)c(OC)cc3C(=O)N2C)cc1` (configuration not stated): the IC50 was found to be 800 nM.

`CC[C@H](C)CNC(=O)c1cncc(-c2cccc(CN3CCC(N4CCCC4)CC3)c2)c1` showed an IC50 of 1170 nM.

In turn, `COc1cccc2c(NN=Cc3ccccc3F)ccnc12` had an IC50 of 940 nM.

`O=C(/C=C/c1ccc(Cl)c(Cl)c1)N1CCC(CCN2CCC(c3c[nH]c4ccccc34)CC2)CC1` gave an IC50 of 600 nM.

Regarding `Cc1cc(N2CCCC2)nc(Nc2ccc(NC(=O)c3ccc(Br)o3)cc2)n1`, the IC50 turned out to be 620 nM.

Molecule `CN1CC[C@H](N(Cc2ccccc2F)c2ccc(C#N)c(Cl)c2)C1` returned an IC50 of 1270 nM.

On to `Cc1cccc2[nH]c(-c3ccc(-c4ccc(NC(=O)Nc5ccc(Cl)cc5)cc4)s3)nc12`, for which the IC50 was found to be 150 nM.

Take `COc1ccc2c(NN=Cc3cccnc3)cc(C)nc2c1`: the IC50 was 990 nM.

Consider `CCOC(=O)c1[nH]c(-c2ccc(-c3ccccc3)cc2)nc1N`, for which the IC50 was 420 nM.

Take `CCNC(=O)Nc1cccc(-c2cccc(-c3nc4c(C)cccc4[nH]3)c2)c1`: the IC50 stood at 1040 nM.

In turn, `CC1CCCN1Cc1cccc(-c2ccc(C(=O)NCCOc3ccccc3)s2)c1` (configuration not stated) came in with an IC50 of 930 nM.

`CC(=O)Nc1ccc(S(=O)(=O)N(Cc2cccc(Oc3ccccc3)c2)C2CCN(C/C=C(\C)CCC=C(C)C)CC2)cc1` had an IC50 of 190 nM.

Turning to `CC(C)(C)c1ccc2nc(-c3ccc(C(=O)NCc4cccc(C(F)(F)F)c4)cc3)[nH]c2c1`, the IC50 is 730 nM.

In turn, `N#Cc1ccc(-c2cnc3ccc(NCCc4cccnc4)nn23)cc1` returned an IC50 of 260 nM.

With `COc1cccc(C23N=C(Nc4nc5ccccc5[nH]4)NC2(c2cccc(OC)c2)NC(Nc2nc4ccccc4[nH]2)=N3)c1` (configuration not stated), the IC50 stood at 160 nM.

The molecule `c1ccc(Oc2ccc(Nc3nncc4ccccc34)cc2)cc1` displayed an IC50 of 690 nM.

The molecule `Cc1c(C)n(C2CCCC2)c2ncnc(OC3CCN(CC(=O)NCC4CC4)CC3)c12` returned an IC50 of 890 nM.

Molecule `COc1ccc(-c2cccc(NC(=O)c3cccc(Cl)c3)c2)cc1CN1CCCC1` displayed an IC50 of 730 nM.

As to `O=S(=O)(Nc1cccc(CCN2CCC(N3CCCCC3)CC2)c1)c1cccc2ccccc12`, the IC50 was 940 nM.

On to `N#Cc1ccc(CN2CCC(Oc3ccc(NC(=O)c4cccs4)cc3Cl)C2)cc1` (configuration not stated), for which the IC50 came out at 400 nM.

`Cn1nc(-c2cccc(CN[C@@H]3CCc4ccc(O)cc43)c2)c2cnc(NC3CCCC3)nc21` came in with an IC50 of 740 nM.

`CCc1cc2c3c(N)nc(N)nc3ccc2n1CC` gave an IC50 of 10 nM.

Take `O=C(NCc1ccccc1S(=O)c1ccccc1CO)C(F)(F)F` (configuration not stated): the IC50 was 180 nM.

In the case of `COc1ccccc1COc1c(C)nc(N)nc1N`, the IC50 is 710 nM.

`OCCN1CCN(Cc2ccc(-c3ccc(-c4nc5ccccc5[nH]4)cc3)cc2)CC1` came in with an IC50 of 620 nM.

Turning to `Cc1nc(N)nc(N)c1-c1cccc(Cl)c1`, the IC50 was determined as 1170 nM.

In the case of `Cc1cccc(C(=O)Nc2ccc(N3CCCN(Cc4cccc(O)c4)CC3)cc2)c1`, the IC50 worked out at 1420 nM.

`O=C(NCc1ccc(Cl)c(Cl)c1)c1ccc(-c2nc3ccc(Cl)cc3[nH]2)cc1` had an IC50 of 900 nM.

Regarding `Cc1ccc(NC(C)C(=O)Nc2ccccc2)cc1S(=O)(=O)N1CCCCCC1` (configuration not stated), the IC50 came out at 60 nM.

`NC(N)=Nc1nc(CCCCCCCCc2csc(N=C(N)N)n2)cs1`: the IC50 stood at 600 nM.

Molecule `COc1ccc(CN2CCC(Oc3cccc(NC(=O)c4ccc(C(F)(F)F)cc4)c3)CC2)cc1` yielded an IC50 of 740 nM.

On to `O=C(NC1CC1)c1ccc(N2CCC(c3ccccc3)CC2)nc1`, for which the IC50 was 1110 nM.

For `CCOc1cc(-c2nnc3[nH]c(=O)n(C)c(=O)c3n2)ccc1OC(C)C`, the IC50 amounted to 400 nM.

With `c1ccc2c(CNCCCN3CCN(CCCNCc4c5ccccc5cc5ccccc45)CC3)c3ccccc3cc2c1`, the IC50 worked out at 180 nM.

`Clc1cccc(Cl)c1CCNCC1CCN(CC2CCCCC2)CC1` had an IC50 of 210 nM.

Take `Nc1ccncc1C(=O)NCCCCN1CCN(c2nsc3ccccc23)CC1`: the IC50 was found to be 800 nM.
